Data reported in publication PMC8160438, “A Novel Heptapeptide, GPPGPAG Transfers to the Brain, and Ameliorates Memory Dysfunction and Dendritic Atrophy in Alzheimer’s Disease Model Mice” (Frontiers in Pharmacology, 2021).
No end group written: not given here.

Assay: Cerebral cortex level after oral administration (brain penetration), LC-MS
Assay type: in vivo, mouse
Method: Bioavailability and brain penetration of GPPGPAG was performed as previously described ([Yang et al., 2017]). GPPGPAG (500 mg) was dissolved in 750 μL of physiological saline. […] The mice were euthanized at 10, 60, and 180 min after administration. Blood was collected and centrifuged at 10,000 g and 4°C for 10 min to yield plasma. Plasma aliquots (200 μL) were extracted with methanol, dried, sonicated, and resolubilized in 50% methanol (100 μL). The cerebral cortex was also collected after complete saline perfusion for removing blood. The cortex was homogenized, extracted with methanol, dried, sonicated, and resolubilized in 50% methanol (100 µL). To calculate GPPGPAG concentration in the plasma and brain using liquid chromatography-mass spectrometry (LC-MS), a standard curve was generated by analyzing standard amounts of GPPGPAG solubilized in methanol at a dosage of 1, 5, and 10 μg/ml. A Thermo Scientific Accela high-performance LC (HPLC) system, interfaced with an LTQ Orbitrap XL hybrid Fourier Transform Mass Spectrometer (Thermo Fisher Scientific), was used to chemically profile GPPGPAG and the biosamples. The LC analysis was performed on a InertSustain AQ-C18 (4.6 mm ID × 50 mm, 5 μm, GL Sciences, Tokyo, Japan) held at 40°C with a flow rate of 200 μL/min 0.01% formic acid in water (a) and methanol (b) were used in the mobile phase, with the following linear elution gradient: 0–15 min, 10–90% b; 15–18 min, 90–10% b; 18–20 min, 10% b. The following electrospray interface (ESI) parameters were used: spray voltage, 4.5 kV; capillary voltage, […]; tube lens, 150 V; capillary temperature, 330°C; sheath gas flow rate, 50 units; aux gas flow rate, 10 units. […]
[…] (A) Total ion chromatogram (upper) and extracted ion current chromatogram (lower) of standard GPPGPAG (m/z = 552.2753) at 10 μg/ml for quantification of (B) and (C) data. […] In total ion chromatogram (upper) and extracted ion current chromatogram (lower) of m/z = 552.2753, no peaks were detected. […] In total ion chromatogram and extracted ion current chromatogram of m/z = 552.2753, peaks matching the retention time of GPPGPAG were detected. (D) Total ion chromatogram (upper) and extracted ion current chromatogram (lower) of standard GPPGPAG (m/z = 552.2716) at 10 μg/ml for quantification of (E) and (F) data. […] In total ion chromatogram (upper) and extracted ion current chromatogram (lower) of m/z = 552.2716, no peaks were detected. […] In total ion chromatogram and extracted ion current chromatogram of m/z = 552.2716, peaks matching the retention time of GPPGPAG were detected. Quantified amount of GPPGPAG in the plasma (G) and cerebral cortex (H) are shown. *p < 0.05, ****p < 0.0001 vs, saline 10 min, one-way ANOVA with post hoc Bonferroni’s test, mean ± standard error, n = 3 mice.

transferred amount in the brain (calculated for 10 mg/kg per orally from the cortex level at 500 mg/mouse): 0.598 pmol
tissue level at time at 3 h (cerebral cortex, po, 180 min after p.o. administration of 500 mg/mouse, ddY mice, female, LC-MS, mean of n = 3): 2750 ng/g
detection in the cerebral cortex (ddY mice, female, 8 weeks, 500 mg/mouse p.o. single dose, cortex after saline perfusion, LC-MS, n = 3): detected 10 min later
Substance: GPPGPAG [GPPGPAG]
detection in plasma and cerebral cortex (male mouse, 9 weeks old, p.o. administration, data not shown): similarly detected in the plasma and cerebral cortex
